This note sets out measurements from patent US20030054985A1, “N-cadherin modulated migration, invasion, and metastasis” (priority 2000, published 2003).

Entries after “also recorded” stand apart in the source; their conditions may differ.

Holding throughout (type): cell-based, human
Test [1] relates to MMP-9. Description: Zymography of conditioned media. The procedure:
FIG. 9. FGF-2 stimulates Matrigel invasion of N-cadherin-expressing cells and expression of MMP-9. (A) Invasion through Matrigel-coated filters of control and N-cadherin-expressing cells, pretreated for 24 h with 10 ng/ml of FGF-2 or left untreated, as measured 5 h after inoculation into Transwell chambers. The invading cells were stained (see Materials and Methods) and photographed using a digital microscope camera. Each panel illustrates a sample representing three to six filters. (B) Gelatinolytic activity of conditioned media of control (Neo-mass) (lanes 1 and 2) or N-cadherin-transfected MCF-7 cells (N-cad-mas, N-cad-5, and N-cad-17; lanes 3-8) that were either treated with FGF-2, or left untreated, as indicated. […]
FIG. 12. […] A. MCF-7 breast cancer cells expressing either control vector (control) or N-cadherin (N-cad-5) were treated with or without FGF-2 and the relative activation of MAPK was assessed by blotting the lysates with anti phospho-MAPK (P-MAPK) (upper panel A, lanes 1-4) against the total levels of MAPK in the same lysates (T-MAPK) (lower panel A, lanes 1-4). […]
Secreted metalloproteinases were detected and characterized by zymography (Nakajima I et al., 1995, Br. J. Cancer. 71:1039-1045). […]

For test [2], the system named is MAPK. Description: Anti-phospho-MAPK immunoblot of cell lysates. The procedure: FIG. 12. N-cadherin synergizes with FGF-2 in promoting MAPK activation and MMP-9 production. A. MCF-7 breast cancer cells expressing either control vector (control) or N-cadherin (N-cad-5) were treated with or without FGF-2 and the relative activation of MAPK was assessed by blotting the lysates with anti phospho-MAPK (P-MAPK) (upper panel A, lanes 1-4) against the total levels of MAPK in the same lysates (T-MAPK) (lower panel A, lanes 1-4). B. MCF-7 breast cancer cells expressing N-cadherin (N-cad-5) were treated with or without FGF-2 in the absence or presence of a potent inhibitor of MAPK ([…]) and cell lysates were blotted with anti-P-MAPK antibodies (lower panel B) or assayed for MMP (Matrix Metallo Protease) production (upper panel B).
To determine whether N-cadherin/FGF-2-stimulated expression of MMP-9 is caused by increased MAPK activity, levels of MAPK activation in N-cadherin-expressing MCF-7 cells (N-cad-5) were compared to those found in control MCF-7 cells (Neo-mass) in response to FGF-2. Serum-starved control and N-cad-5 cells were treated with 10 ng/mL FGF-2 for 10 min and 30 μg of cell lysate were subjected to SDS-PAGE and immunobloting with either anti-phospho-MAPK (P-MAPK) or anti-total MAPK (T-MAPK).
A general note: Immunoblotting shows a protein as a band on a membrane.

Test [3] concerns N-cadherin-expressing cell lines (N-cad-mass, N-cad-5, N-cad-17). The test can be described thus: Transwell migration after FGF-2 pretreatment. The settings on record: pretreated 24 h with 10 ng/ml FGF-2, measured 5 h after inoculation into Transwell chambers. The procedure:
(§1) FIG. 8. Stimulates cell migration of N-cadherin-expressing cells. The motility of control (Neo-mass) and N-cadherin-expressing cells (N-cad-mass, N-cad-5, and N-cad-17), pretreated for 24 h with 10 ng/ml of FGF-2 or left untreated, was measured 5 h after inoculation into the Transwell chambers. (A) The migrating cells were fixed, stained, and photographed; each panel represents an example of 3-6 replicates. (B) Bar graphs represent quantitation of triplicate wells. The experiment was repeated six times.
(§2) The ability of cells to migrate through control (migration) or invade through Matrigel-coated filters (invasion) was measured in a Boyden chamber, 8-micron Transwell filters, which were coated with or without 50 μg Matrigel (Becton Dickinson & Co.), were used according to standard protocols (Albini A et al., 1987, Cancer Res 47:3239-3245). Fibroblast conditioned medium, which was obtained by a 24-h incubation of NTH-3T3 cells with 50 μg/mL ascorbic acid in serum-free DME media, was placed in the lower chamber as a chemoattractant. […] Values for invasion were expressed as the average number of migrated cells bound per microscopic field over four fields per assay and expressed as averages for triplicate experiments.

For test [4], the system named is Neo-mass cell line. The test can be described thus: Transwell migration after FGF-2 pretreatment. The settings on record: pretreated 24 h with 10 ng/ml FGF-2, measured 5 h after inoculation into Transwell chambers. The procedure: as §1, §2
The subject of test [5] is N-cadherin-expressing MCF-7 cells. Description: Matrigel invasion assay after FGF-2 pretreatment. The settings on record: N-cad mass, N-cad-5 and N-cad-17; 10 ng/ml FGF-2 for 24 h, 5 h of incubation. The procedure:
(§3) FIG. 9. FGF-2 stimulates Matrigel invasion of N-cadherin-expressing cells and expression of MMP-9. (A) Invasion through Matrigel-coated filters of control and N-cadherin-expressing cells, pretreated for 24 h with 10 ng/ml of FGF-2 or left untreated, as measured 5 h after inoculation into Transwell chambers. The invading cells were stained (see Materials and Methods) and photographed using a digital microscope camera. Each panel illustrates a sample representing three to six filters. (B) Gelatinolytic activity of conditioned media of control (Neo-mass) (lanes 1 and 2) or N-cadherin-transfected MCF-7 cells (N-cad-mas, N-cad-5, and N-cad-17; lanes 3-8) that were either treated with FGF-2, or left untreated, as indicated. […] The ability of cells to migrate through control (migration) or invade through Matrigel-coated filters (invasion) was measured in a Boyden chamber, 8-micron Transwell filters, which were coated with or without 50 μg Matrigel (Becton Dickinson & Co.), were used according to standard protocols (Albini A et al., 1987, Cancer Res 47:3239-3245). […] Values for invasion were expressed as the average number of migrated cells bound per microscopic field over four fields per assay and expressed as averages for triplicate experiments.

The subject of test [6] is Neo-mass cell. The test can be described thus: Matrigel invasion assay after FGF-2 pretreatment. The note with it: 10 ng/ml FGF-2 for 24 h, 5 h of incubation. The procedure: as §3
The subject of test [7] is MMP-2. Description: Zymography of conditioned media. The settings on record: N-cadherin transfectants, FGF-2 10 ng/ml. The procedure:
(§4) FIG. 9. FGF-2 stimulates Matrigel invasion of N-cadherin-expressing cells and expression of MMP-9. (A) Invasion through Matrigel-coated filters of control and N-cadherin-expressing cells, pretreated for 24 h with 10 ng/ml of FGF-2 or left untreated, as measured 5 h after inoculation into Transwell chambers. The invading cells were stained (see Materials and Methods) and photographed using a digital microscope camera. Each panel illustrates a sample representing three to six filters. (B) Gelatinolytic activity of conditioned media of control (Neo-mass) (lanes 1 and 2) or N-cadherin-transfected MCF-7 cells (N-cad-mas, N-cad-5, and N-cad-17; lanes 3-8) that were either treated with FGF-2, or left untreated, as indicated. (C) Gelatinolytic activity of conditioned media of Neo-mass, N-cad-mass, N-cad-5, and N-cad- 17 that were pretreated for 24 h either with 10 ng/ml of FGF-2 (lanes 1, 3, 5 and 7, respectively) or 5 μg/ml insulin (lanes 2, 4, 6, and 8, respectively).
(§5) Secreted metalloproteinases were detected and characterized by zymography (Nakajima I et al., 1995, Br. J. Cancer. 71:1039-1045). Conditioned media were obtained by a 30-h incubation of N-cadherin and control transfected cells, which were treated overnight with or without FGF-2 (10 ng/ml) and heparin (0.1 mg/ml) in serum-free media. Conditioned media (20 μl) were loaded on 8% SDS PAGE gels that had been copolymerized with 1 mg/ml gelatin. Electrophoresis was performed under nonreducing conditions at 100 V for 2 h at 4° C. Gels were washed once for 30 min in 2.5% Triton X-100 to remove SDS, and were incubated in collagenase buffer (100 mM Tris-HCl pH 8.0, 5 mM CaCl2, 0.02% NaN3) for 40 h at 37° C. Gels were stained with 0.5% Coomassie blue in 30% methanol/10% acetic acid for 30 min at room temperature and destained in 30% methanol/10% acetic acid three times for 15 min. The presence of metalloproteinases was indicated by an unstained proteolytic zone in the substrate. […]

Test [8] deals with MMP. The test can be described thus: Zymography of conditioned media. The procedure:
as §4, §5

The mark [9] stands for this setting: N-cad-5 cells, FGF-2 plus inhibitor.

For the compound `COc1cccc(-c2cc(=O)c3ccccc3o2)c1N` [PD 90859, reference compound], the “production of MMP-9 induced by FGF-2” value in test [1] (setting [9]) is listed as “blocked”. For the same compound, the “phosphorylation of MAPK induced by FGF-2” value in test [2] (setting [9]) is on record as “blocked effectively”.
As for “FGF-2: growth factor FGF-2, purchased from Pepro Tech”, the motility result is on record as “dramatic increase” in test [3] and “did not affect” in test [4]. Moreover, the “invasiveness through Matrigel-coated filters” value in test [5] is listed as “further enhanced; also recorded: stimulates”. The “invasion through Matrigel-coated filters” value in test [6] is recorded as “not effect”. Further, the “expression of MMP-9” value in test [1] (all N-cadherin transfectants, FGF-2 10 ng/ml, conditioned media) is recorded as “dramatically increased; also recorded: stimulates”. Also, in test [7], the MMP-2 production result is listed as “absence of detectable effects”. Besides, the MMP production result in test [8] (Neo-mass cells, FGF-2 10 ng/ml, conditioned media) is given as “no effect”. In test [2] (N-cad-5 cells, 10 ng/mL FGF-2 for 10 min), the MAPK phosphorylation result is “marked increase”. Besides, the “MAPK phosphorylation (ERK/P44 isoform)” value in test [2] (control MCF-7 cells, in the presence of FGF-2) is listed as “only low levels of phosphorylation”.
Turning to “insulin: Insulin from Sigma, used at a concentration that acts through the IGF-1 receptor”, the MMP levels result in test [8] (N-cad-mass, N-cad-5, N-cad-17, 5 μg/ml insulin for 24 h) is “no effect”.
